In patent US9370515B2, “Mixed lineage kinase inhibitors and method of treatments” (CALIFIA BIO, INC., priority 2013, dated 2016):

biological target: MLK-3 (Homo sapiens, UniProt Q16584); assay: Biochemical assay for the inhibition of kinase activity for MLK-3 (33P-ATP, HOTSPOT filter binding); conditions: activated MLK-3 20 nM, ATP 50 μM, myelin basic protein 20 μM, 20 minutes room temperature
Procedure: Biochemical Assay for the Inhibition of Kinase Activity for MLK-3: Myelin basic protein (20 μM final concentration) is dissolved in 20 mM Hepes (pH 7.5) containing […], […], 0.02% Brij35, 0.02 mg/ml BSA, 0.1 μM Na3VO4, 2 mM DTT, and 1% DMSO. Activated MLK-3 is added and mixed (20 nM final concentration), and inhibitors are added in DMSO. ^33P-ATP (specific activity 500 μCi/μL) is delivered into the reaction mixture to initiate the reaction (ATP concentration is 50 μM) and the mixture is incubated at room temperature for 20 minutes. % Activity is determined using a proprietary HOTSPOT™ microfluidic filter binding technology. See, Expert Opin. Drug Discov. 2008 June; 3(6): 607-621.

Chain of MLK-3 (Q16584 whole entry): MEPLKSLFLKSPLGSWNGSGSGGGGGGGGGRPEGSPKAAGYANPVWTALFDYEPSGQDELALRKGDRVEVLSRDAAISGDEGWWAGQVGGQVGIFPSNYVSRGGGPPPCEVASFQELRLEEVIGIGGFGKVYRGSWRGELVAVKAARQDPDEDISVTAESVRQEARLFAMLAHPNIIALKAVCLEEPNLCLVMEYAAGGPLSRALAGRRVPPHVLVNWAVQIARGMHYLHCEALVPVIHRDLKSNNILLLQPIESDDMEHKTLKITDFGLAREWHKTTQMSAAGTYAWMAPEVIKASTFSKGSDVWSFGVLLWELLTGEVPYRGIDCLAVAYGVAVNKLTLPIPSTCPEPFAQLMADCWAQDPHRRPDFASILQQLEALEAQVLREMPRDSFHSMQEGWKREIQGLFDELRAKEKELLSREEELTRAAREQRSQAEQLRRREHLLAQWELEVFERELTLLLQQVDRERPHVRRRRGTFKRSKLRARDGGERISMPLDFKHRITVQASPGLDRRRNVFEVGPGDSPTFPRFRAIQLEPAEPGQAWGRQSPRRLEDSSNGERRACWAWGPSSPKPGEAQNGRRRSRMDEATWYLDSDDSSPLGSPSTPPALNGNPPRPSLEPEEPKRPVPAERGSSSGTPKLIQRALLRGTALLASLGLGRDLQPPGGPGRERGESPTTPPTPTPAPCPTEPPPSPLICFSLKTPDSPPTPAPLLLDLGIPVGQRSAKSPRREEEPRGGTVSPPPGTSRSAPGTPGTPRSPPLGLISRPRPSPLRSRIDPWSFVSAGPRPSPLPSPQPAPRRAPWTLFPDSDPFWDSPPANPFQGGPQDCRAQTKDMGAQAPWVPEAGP

O[C@H]1CC[C@H](Nc2ccc3ncc(-c4ccsc4)n3n2)CC1 [Compound 180, trans-(3-(thiophen-3-yl)imidazo[1,2-b]pyridazin-6-ylamino)cyclohexanol] and O[C@H]1CC[C@H](Nc2ccc3ncc(-c4csc5ccccc45)n3n2)CC1 [Compound 90, trans-4-(3-(benzo[b]thiophen-3-yl)imidazo[1,2-b]pyridazin-6-ylamino)cyclohexanol] cannot be ordered by IC50: less than 5000 nM for the first, 500 to 1000 nM for the second.

O[C@H]1CC[C@H](Nc2ccc3ncc(-c4cc5ncccc5s4)n3n2)CC1 [Compound 209, trans-4-(3-(thieno[3,2-b]pyridin-2-yl)imidazo[1,2-b]pyridazin-6-ylamino)cyclohexanol] and O[C@H]1CC[C@H](Nc2ccc3ncc(-c4cc5ccncc5s4)n3n2)CC1 [Compound 219, trans-4-(3-(thieno[2,3-c]pyridin-2-yl)imidazo[1,2-b]pyridazin-6-ylamino)cyclohexanol] cannot be ordered by IC50: 500 to 1000 nM for the first, less than 5000 nM for the second.

OC[C@H]1CCCN1c1ccc2ncc(-c3cc4ccccc4s3)n2n1 [Compound 126, ((R)-1-(3-(benzo[b]thiophen-2-yl)imidazo[1,2-b]pyridazin-6-yl)pyrrolidin-2-yl)methanol] and OC[C@@H]1CCCN1c1ccc2ncc(-c3cc4ccccc4s3)n2n1 [Compound 127, ((S)-1-(3-(benzo[b]thiophen-2-yl)imidazo[1,2-b]pyridazin-6-yl)pyrrolidin-2-yl)methanol] cannot be ordered by IC50: less than 5000 nM for the first, less than 5000 nM for the second.

First: COc1ccc(Nc2ccc3ncc(-c4cc5cccnc5s4)n3n2)cc1OC [Compound 204, N-(3,4-dimethoxyphenyl)-3-(thieno[2,3-b]pyridin-2-yl)imidazo[1,2-b]pyridazin-6-amine]
Second: COc1ccc(Nc2ccc3ncc(-c4cc5cnccc5s4)n3n2)cc1OC [Compound 206, N-(3,4-dimethoxyphenyl)-3-(thieno[3,2-c]pyridin-2-yl)imidazo[1,2-b]pyridazin-6-amine]
The IC50 of the first is higher: 100 to 500 nM for the first, less than 100 nM for the second. The second is the more potent here.

COc1cc(Nc2ccc3ncc(-c4cc5ccccc5s4)n3n2)cc(OC)c1OC [Compound 14, 3-(benzo[b]thiophen-2-yl)-N-(3,4,5-trimethoxyphenyl)imidazo[1,2-b]pyridazin-6-amine] and COc1cc(Nc2ccc3ncc(-c4cc5ccccc5s4)n3n2)ccn1 [Compound 34, 3-(benzo[b]thiophen-2-yl)-N-(2-methoxypyridin-4-yl)imidazo[1,2-b]pyridazin-6-amine] cannot be ordered by IC50: 500 to 1000 nM for the first, less than 5000 nM for the second.

CN1CCN(Cc2ccc(-c3ccc4ncc(-c5cc6ccccc6s5)n4n3)cc2)CC1 [Compound 39, 3-(benzo[b]thiophen-2-yl)-6-(4-((4-methylpiperazin-1-yl)methyl)phenyl)imidazo[1,2-b]pyridazine] and COc1cc2cc(-c3cnc4ccc(-c5cccc(CN6CCN(C)CC6)c5)nn34)sc2cc1OC [Compound 74, 3-(5,6-dimethoxybenzo[b]thiophen-2-yl)-6-(3-((4-methylpiperazin-1-yl)methyl)phenyl)imidazo[1,2-b]pyridazine] cannot be ordered by IC50: less than 5000 nM for the first, 500 to 1000 nM for the second.

Cc1cccc2cc(-c3cnc4ccc(N[C@H]5CC[C@H](O)CC5)nn34)[nH]c12 [Compound 196, trans-4-(3-(7-methyl-1H-indol-2-yl)imidazo[1,2-b]pyridazin-6-ylamino)cyclohexanol] and O[C@H]1CC[C@H](Nc2ccc3ncc(-c4cc5ccccc5[nH]4)n3n2)CC1 [Compound 88, trans-4-(3-(1H-indol-2-yl)imidazo[1,2-b]pyridazin-6-ylamino)cyclohexanol] fall in the same range of IC50: 100 to 500 nM for the first, 100 to 500 nM for the second.

COc1ccc(Nc2ccc3ncc(-c4cc5cncc(C)c5s4)n3n2)cc1OC [Compound 214, N-(3,4-dimethoxyphenyl)-3-(7-methylthieno[3,2-c]pyridin-2-yl)imidazo[1,2-b]pyridazin-6-amine] and CCOc1cccc2cc(-c3cnc4ccc(Nc5ccc(OC)c(OC)c5)nn34)sc12 [Compound 186, 3-(7-ethoxybenzo[b]thiophen-2-yl)-N-(3,4-dimethoxyphenyl)imidazo[1,2-b]pyridazin-6-amine] fall in the same range of IC50: 100 to 500 nM for the first, 100 to 500 nM for the second.

O=C(O)c1cccc(Nc2ccc3ncc(-c4ccc5ccccc5c4)n3n2)c1 [Compound 63, 3-(3-(naphthalen-3-yl)imidazo[1,2-b]pyridazin-6-ylamino)benzoic acid] and COc1ccc(Nc2ccc3ncc(-c4ccc5ccccc5c4)n3n2)cc1OC [Compound 62, N-(3,4-dimethoxyphenyl)-3-(naphthalen-3-yl)imidazo[1,2-b]pyridazin-6-amine] cannot be ordered by IC50: 100 to 500 nM for the first, less than 5000 nM for the second.

CC(C)Oc1cccc2cc(-c3cnc4ccc(N[C@H]5CC[C@H](O)CC5)nn34)sc12 [Compound 178, trans-4-(3-(7-isopropoxybenzo[b]thiophen-2-yl)imidazo[1,2-b]pyridazin-6-ylamino)cyclohexanol] and O[C@H]1CC[C@H](Nc2ccc3ncc(-c4cc5cnccc5s4)n3n2)CC1 [Compound 207, trans-(3-(thieno[3,2-c]pyridin-2-yl)imidazo[1,2-b]pyridazin-6-ylamino)cyclohexanol] fall in the same range of IC50: 100 to 500 nM for the first, 100 to 500 nM for the second.

COC(=O)c1cccc(Nc2ccc3ncc(-c4ccc5[nH]ccc5c4)n3n2)c1 [Compound 61, methyl 3-(3-(1H-indol-5-yl)imidazo[1,2-b]pyridazin-6-ylamino)benzoate] and COc1ccc(Nc2ccc3ncc(-c4ccc5[nH]ccc5c4)n3n2)cc1OC [Compound 53, 3-(1H-indol-5-yl)-N-(3,4-dimethoxyphenyl)imidazo[1,2-b]pyridazin-6-amine] cannot be ordered by IC50: less than 5000 nM for the first, 500 to 1000 nM for the second.

First: COc1ccc(Nc2ccc3ncc(-c4cc5cccc(OC(F)F)c5s4)n3n2)cc1OC [Compound 187, 3-(7-(difluoromethoxy)benzo[b]thiophen-2-yl)-N-(3,4-dimethoxyphenyl)imidazo[1,2-b]pyridazin-6-amine]
Second: COc1ccc(Nc2ccc3ncc(-c4cc5cccc(OC(C)=O)c5s4)n3n2)cc1OC [Compound 78, 2-(6-(3,4-dimethoxyphenylamino)imidazo[1,2-b]pyridazin-3-yl)benzo[b]thiophen-7-yl acetate]
The IC50 of the first is higher: 500 to 1000 nM for the first, 100 to 500 nM for the second.

CCCN(C)c1ccc2ncc(-c3ccc4[nH]ccc4c3)n2n1 [Compound 158, 3-(1H-indol-5-yl)-N-methyl-N-propylimidazo[1,2-b]pyridazin-6-amine] and CC(C)CNc1ccc2ncc(-c3ccc4[nH]ccc4c3)n2n1 [Compound 142, 3-(1H-indol-5-yl)-N-isobutylimidazo[1,2-b]pyridazin-6-amine] cannot be ordered by IC50: less than 5000 nM for the first, less than 5000 nM for the second.

Compared with c1cc2cc(-c3ccc4ncc(-c5ccc6[nH]ccc6c5)n4n3)ccc2[nH]1 [Compound 50, 3,6-di(1H-indol-5-yl)imidazo[1,2-b]pyridazine], O=C(O)c1cc(Nc2ccc3ncc(-c4cc5ccccc5s4)n3n2)ccc1OCCCO [Compound 44, 5-(3-(benzo[b]thiophen-2-yl)imidazo[1,2-b]pyridazin-6-ylamino)-2-(3-hydroxypropoxy)benzoic acid] is higher in IC50: 100 to 500 nM for the first, 500 to 1000 nM for the second.

COc1ccc2[nH]c(-c3cnc4ccc(N[C@H]5CC[C@H](OC)CC5)nn34)cc2c1 [Compound 198, trans-3-(5-methoxy-1H-indol-2-yl)-N-(4-methoxycyclohexyl)imidazo[1,2-b]pyridazin-6-amine] and COc1ccc2cc(-c3cnc4ccc(N[C@H]5CC[C@H](O)CC5)nn34)[nH]c2c1 [Compound 86, trans-4-(3-(6-methoxy-1H-indol-2-yl)imidazo[1,2-b]pyridazin-6-ylamino)cyclohexanol] cannot be ordered by IC50: less than 5000 nM for the first, 100 to 500 nM for the second.

COc1ccc(N(C)c2ccc3ncc(-c4cc5cc(OC)c(OC)cc5s4)n3n2)cc1OC [Compound 75, 3-(5,6-dimethoxybenzo[b]thiophen-2-yl)-N-(3,4-dimethoxyphenyl)-N-methylimidazo[1,2-b]pyridazin-6-amine] and COc1ccc(Nc2ccc3ncc(-c4cc5cc(OC)c(OC)c(OC)c5s4)n3n2)cc1OC [Compound 83, 3-(5,6,7-trimethoxybenzo[b]thiophen-2-yl)-N-(3,4-dimethoxyphenyl)imidazo[1,2-b]pyridazin-6-amine] cannot be ordered by IC50: 100 to 500 nM for the first, less than 5000 nM for the second.

First: Cc1cncc2cc(-c3cnc4ccc(N(C)[C@H]5CC[C@H](O)CC5)nn34)sc12 [Compound 221, trans-4-(N-methyl-N-(3-(7-methylthieno[3,2-c]pyridin-2-yl)imidazo[1,2-b]pyridazin-6-yl)amino)cyclohexanol]
Second: Cc1c(-c2cnc3ccc(N[C@H]4CC[C@H](O)CC4)nn23)sc2ccc(Cl)cc12 [Compound 164, trans-4-(3-(5-chloro-3-methylbenzo[b]thiophen-2-yl)imidazo[1,2-b]pyridazin-6-ylamino)cyclohexanol]
The IC50 of the first is lower: 100 to 500 nM for the first, 500 to 1000 nM for the second.

First: OCC1CCCN(c2ccc3ncc(-c4cc5ccccc5s4)n3n2)C1 (centres unmarked) [Compound 132, (1-(3-(benzo[b]thiophen-2-yl)imidazo[1,2-b]pyridazin-6-yl)piperidin-3-yl)methanol]
Second: O[C@H]1CCC[C@@H](Nc2ccc3ncc(-c4cc5ccccc5s4)n3n2)C1 (relative stereo) [Compound 122, cis-3-(3-(benzo[b]thiophen-2-yl)imidazo[1,2-b]pyridazin-6-ylamino)cyclohexanol]
The IC50 of the first is higher: 500 to 1000 nM for the first, 100 to 500 nM for the second. The second is the more potent here.

COc1cc(Nc2ccc3ncc(-c4cc5cccc(OC(F)(F)F)c5s4)n3n2)ccc1OC(F)(F)F [Compound 190, N-(3-methoxy-4-(trifluoromethoxy)phenyl)-3-(7-(trifluoromethoxy)benzo[b]thiophen-2-yl)imidazo[1,2-b]pyridazin-6-amine] and COc1ccc(Nc2ccc3ncc(-c4cc5cc(OC)c(OC)cc5[nH]4)n3n2)cc1OC [Compound 197, 3-(5,6-dimethoxy-1H-indol-2-yl)-N-(3,4-dimethoxyphenyl)imidazo[1,2-b]pyridazin-6-amine] cannot be ordered by IC50: less than 5000 nM for the first, 100 to 500 nM for the second.
